Experimental data from patent US9499811B2, “Ligation enhancement” (New England Biolabs, Inc., priority 2011, dated 2016).
“And” between values parts separate entries of the source, which are not always exact repeats. Equal entries are not always repeated. “Also recorded” adds a separate entry of the source.

Tests used:
[1] = target: T1, T4 DNA ligase (Enterobacteria phage T4, UniProt P00970); assay: Transformants after ligation of AhdI-linearized pUC19 in T4 DNA ligase buffer vs Quick Ligase buffer containing PEG 6000; type: biochemical; parameters: purchased NEB (New England Biolabs), Ipswich, Mass. #M0202; settings: 1,2-PrD in regular ligase buffer, chemically competent cells
T1 sequence (P00970 1-487): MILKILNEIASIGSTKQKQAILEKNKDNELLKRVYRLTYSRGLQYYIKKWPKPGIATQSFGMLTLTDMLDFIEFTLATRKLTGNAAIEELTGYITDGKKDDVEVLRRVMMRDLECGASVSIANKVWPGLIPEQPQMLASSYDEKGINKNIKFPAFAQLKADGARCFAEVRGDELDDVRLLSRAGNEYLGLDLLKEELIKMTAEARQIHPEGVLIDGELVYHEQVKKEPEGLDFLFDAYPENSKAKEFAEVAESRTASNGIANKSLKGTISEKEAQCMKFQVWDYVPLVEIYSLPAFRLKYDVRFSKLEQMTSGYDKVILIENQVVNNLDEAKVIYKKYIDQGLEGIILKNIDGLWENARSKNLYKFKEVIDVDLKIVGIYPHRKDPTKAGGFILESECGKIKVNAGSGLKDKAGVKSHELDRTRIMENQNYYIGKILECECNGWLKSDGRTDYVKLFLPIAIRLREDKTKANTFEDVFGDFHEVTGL
Procedure: The Y-axis is transformants per 10 pg DNA (transformations w/chemically competent cells.) The X-axis is regular ligase buffer (RLB) with the percentage of added 1,2-PrD given in parentheses. The quick ligase buffer (QLB) has PEG in it to enhance ligation.
(§1) The reaction mixtures contained DNA at 50-100 ng and 1,2-PrD at different concentrations. 1 μl of regular concentration (NEB, Ipswich, Mass., #M0202; 400 units) or 1 μl of high concentration T4 DNA ligase (NEB, Ipswich, Mass., #M0202; 2000 units) was then added to a final volume of 21 μl in 1×T4 DNA Ligase Buffer (NEB, Ipwich, Mass., #B0202) or 1× Quick Ligase™ Buffer (NEB, Ipswich, Mass., #B2200).
For chemically competent cell transformations, the cell-DNA mixture was incubated on ice for 30 min, heat-shocked at 42° C. for 30 sec, then returned to ice for 5 min. […] Plates were inverted and incubated for 16 hrs at 37° C., followed by quantification of total colony numbers.
Ligations were performed in both buffers using 50 ng of AhdI-linearized pUC19 double-stranded DNA (containing single-base overhangs) following the conditions described in Example 1. A total of 10 pg DNA (40 μl of a 1:20 dilution of the SOC outgrowth) was used per plate and transformants were counted after 16 hrs at 37° C.

[2] = target: T1, T4 DNA ligase; assay: Ligase activity titer assay with blunt-ended PhiX174-HaeIII fragments, agarose gel; type: biochemical; parameters: purchased NEB (New England Biolabs), Ipswich, Mass. #M0202; settings: 6% 1,2-PrD, two-fold ligase dilution series, 30 min 25 C
Procedure: The ligase activity in the absence and presence of 6% 1,2-PrD was determined in a two-fold ligase dilution series. The symbol “*” denotes equivalent levels of ligation, showing that ligation efficiency was enhanced 4-fold. The first and last lanes contain DNA markers.
The effectiveness of the ligation enhancer was also established for blunt-ended DNA as follows: 20 μl reactions were set up containing two-fold serial dilutions of 2000 units of T4 DNA ligase, 200 ng PhiX174-HaeIII digest (NEB, Ipswich, Mass., #N3026), and regular ligase buffer with 200 ng phiX174-HaeIII blunt-ended fragments per 20 μl, in the absence and presence of 6% 1,2-PrD. The reactions were incubated for 30 min at room temperature (25° C.) followed by electrophoresis on a 1% agarose gel. 1,2-PrD enhanced T4 DNA ligase activity 4-fold in this titer reaction.

[3] = test system: chemically competent DH5 alpha E. coli cells; assay: Mock ligation with supercoiled pUC19 DNA and transformation (control); type: cell-based; settings: 12% 1,2-PrD; for Transformants from 2 pg SC DNA: supercoiled pUC19
Procedure: (§2) For chemically competent cell transformations, the cell-DNA mixture was incubated on ice for 30 min, heat-shocked at 42° C. for 30 sec, then returned to ice for 5 min. A volume of 950 μl SOC medium (2% vegetable peptone or Tryptone, 0.5% yeast extract, 10 mM NaCl, 2.5 mM KCl, 10 mM MgCl2, 10 mM MgSO4 and 20 mM glucose) was added to the cell-DNA mixture, followed by a one hr 37° C. outgrowth period with agitation. A volume of 25-50 μl of appropriately diluted cells in SOC was spread onto Rich Agar plates (composition per liter: 10 g soy peptone, 5 g yeast extract, 10 g NaCl, 1 g MgCl2-6H2O, 1 g dextrose, 15 grams agar) supplemented with 100 μg/ml ampicillin. Plates were inverted and incubated for 16 hrs at 37° C., followed by quantification of total colony numbers.
Mock DNA ligations were set up with 1 ng of supercoiled pUC19 DNA in 1× regular DNA ligase buffer in the presence and absence of 2000 units T4 DNA ligase and with or without 12% 1,2-PrD. Ligation reactions were conducted using the standard protocol in Example 1 and transformations with chemically competent DH5 alpha E. coli cells. 40 μl of a 1:20 dilution of the 1 ml SOC outgrowth containing 2 pg supercoiled DNA was plated onto agarose plates and incubated overnight.
This illustrates the enhancement is at the ligation step and not the transformation step.

[4] = target: T1, T4 DNA ligase; assay: Ligation efficiency assay (standard assay, various ligases and buffers); type: biochemical; parameters: purchased NEB (New England Biolabs), Ipswich, Mass. #M0202; settings: 1%-12% 1,2-PrD; various concentrations and types of DNA ligase, regular and Quick Ligase buffers
Procedure: as §1
(§3) A standard assay uses 100 ng DNA, 1 μl of T4 DNA ligase, 21 μl 1×T4 DNA ligase buffer and varying amounts of enhancer.
(§4) Ligation reactions were incubated for 10 min at room temperature (25° C.) unless otherwise stated, then placed on ice for 2 min. In some experiments the ligase was heat-killed by incubation at 65° C. for 20 min. The ligation reactions were analyzed by 1% agarose gel electrophoresis to identify DNA species and determine the efficiency of […].

[5] = target: T1, T4 DNA ligase; assay: Cloning of a 500 bp amplicon made by Taq DNA polymerase into a T-tailed vector (ligation test system a); type: biochemical; parameters: purchased NEB (New England Biolabs), Ipswich, Mass. #M0202; settings: enhancer at 12%; no addition = 1-fold; single-base overhangs
Procedure: All were tested side-by-side using two ligation test systems which were: (a) cloning of a 500 bp amplicon made by Taq DNA polymerase into a T-tailed vector; and (b) recircularization of an AhdI-linearized plasmid. Both ligation test systems used DNA with single-base overhangs.
as §1, §3, §4
A volume of 2 μl from each ligation reaction was incubated with 50 μl of chemically competent (NEB, Ipswich, Mass., #C2987I) or electrocompetent (NEB, Ipswich, Mass., #C2989K) DH5 alpha E. coli cells.
as §2

CC(O)CO (stereo not shown) [1,2-PrD, 1,2-propanediol] was tested, and the “Transformants per 10 pg DNA compared with PEG-containing Quick Ligase buffer” value [1] was “enhanced DNA ligation at least as much as PEG containing Quick Ligase; also recorded: achieved the level of transformation expected or greater than in PEG-containing (quick ligase) buffers”, the “Enhancement of T4 DNA ligase activity (ligation efficiency) in titer reaction” value [2] was 4 fold and the “Transformants from 2 pg SC DNA” value ([3]; 2000 U T4 DNA ligase, duplicate reactions) was 82 and 73. For the same compound, the “Transformants from 2 pg SC DNA” value ([3]; T4 DNA ligase none) was 126, the “Effect on transformation with supercoiled pUC19 DNA” value ([3]; with or without T4 DNA ligase) was “not statistically altered; also recorded: does not affect nor interfere with transformation” and the Enhancement of ligation [4] was “consistent enhancement of ligation”. For the same compound, the “Cloning Enhancement” value [5] was 14-fold.
